Laboratory results taken from US8877819B2, “Methods for treating heat stress and related compositions” (Georgetown University, priority 2008, dated 2014).
Marks after values point to notes of the source that are not given here.

Tests used:
[1] = test system: IL-6; experiment: Cytokine assay (ELISA), IL-6; type: in vivo, Zucker Fatty Rats; conditions: Experiment 2
Method: (§1) Various cytokines were measured by ELISA methodology using kits from the following sources: rat MCP-1—Assay Designs Inc., Ann Arbor, Mich.; rat adiponectin—ALPCO Diagnostics, Salem, N.H.; TNF-a, ALPCO Diagnostics, Salem, N.H.; RAT IL-1B—Assay Designs Inc, Ann Arbor, Mich.; RAT IL-6—ALPCO Diagnostics, Salem, N.H.

[2] = Blood chemistries; type: in vivo, Zucker Fatty Rats; conditions: Experiment 2; for ALP (alkaline phosphatase) / ALT (alanine aminotransferase) / AST (aspartate aminotransferase) / BUN / CO2 / Calcium / Chloride / Cholesterol / Creatinine / Glucose / Potassium / Sodium / Triglycerides: blood at end of study
Excerpt: Blood for chemical analysis was obtained at the end of the study following removal of food four hours earlier. Blood chemistry values were obtained via dry chemistry procedures using a Johnson and Johnson (Langhorne, Pa.) Vitros® 250 instrument.

[3] = test system: TNF-α; experiment: Cytokine assay (ELISA), TNF-α; type: in vivo, Zucker Fatty Rats; conditions: Experiment 2
Method: as §1

[4] = test system: Zucker Fatty Rats (ZFR); experiment: Intraperitoneal Glucose Tolerance Test (ipGTT); type: in vivo; conditions: Experiment 2; for insulin concentration one hour after the glucose challenge: glucose 2.5 g/kg i.p.; for Baseline insulin concentration / average baseline glucose level: ipGTT baseline
Method: During the ipGTT, glucose (2.5 g/kg BW) was injected intraperitoneally (i.p.) to challenge the tolerance to glucose. Drops of blood were obtained from the tail at 0, 30, 60, 120, 180 and 240 minutes post injection. Glucose was estimated using commercial glucose strips (Lifescan, One Touch Ultra, […], Calif.).

[5] = test system: MCP-1; experiment: Cytokine assay (ELISA), MCP-1; type: in vivo, Zucker Fatty Rats; conditions: Experiment 2
Method: as §1

[6] = test system: angiotensin-2; experiment: Serum angiotensin-2 levels (radioimmunoassay); type: in vivo, Zucker Fatty Rats
Method: Serum angiotensin-2 was trapped by octylminicolumns (Amprep-C8, 500 mg, Amersham, Buckingshire, UK). Each minicolumn was prewashed with 5 mL of 100% methanol and then with 10 mL of 0.1% trifluoroacetic acid (TFA) in distilled water. After the serum was passed through the minicolumn, it was washed with 0.1% TFA again. […] Samples were collected and dried in a vacuum centrifuge and dissolved in 0.1M Tris-acetate buffer (pH 7.4) containing 2.6 mM disodium salt of ethylenediaminetetra-acetic acid (EDTA), 1 mM phenylmethylsulphonyl fluoride, and 0.1% bovine serum albumin.
Angiotensin-2 was measured by radioimmunoassay using an angiotensin-2 antibody (Peninsula Laboratories Inc., Belmont, Calif.). The sensitivity of the assay is 1.0 pg/tube. The 500-fold diluted angiotensin-2 antibody (100 μL) was added to the sample (400 μL) and standard tubes that were incubated 24 hours at 4° C.

[7] = Organ weights; type: in vivo, Zucker Fatty Rats; conditions: Experiment 2, after sacrifice, in g (unit assumed)
Method: Organ weights were measured immediately after sacrifice of the rats.

[8] = test system: Thiobarbituric acid-reactive substances (TBARS); experiment: Lipid peroxidation (TBARS) in hepatic and kidney homogenates; type: in vivo, Zucker Fatty Rats; conditions: Experiment 2
Method: Thiobarbituric acid-reactive substances (TBARS) as an index of lipid peroxidation were determined on hepatic and kidney homogenates from control and treated and malondialdehyde (MDA) was used as the standard.

[9] = Hi Asta, astaxanthin 25 mg/kg in feed
[10] = Lo Asta, astaxanthin 5 mg/kg in feed

CC1=C(/C=C/C(C)=C/C=C/C(C)=C/C=C/C=C(C)/C=C/C=C(C)/C=C/C2=C(C)C(=O)[C@@H](O)CC2(C)C)C(C)(C)C[C@H](O)C1=O [Asta, astaxanthin]
IL-6 [1, 9]: 433.0 ± 9.3 | IL-6 [1, 10]: 470.0 ± 21^ | renal damage (elevations in BUN and creatinine concentrations) [2, 9]: none of the ZFR in the Hi Asta group showed any evidence of elevations | renal damage (increased circulating urea, creatinine and potassium) [2, 10]: evidence of renal damage occurred in three ZFR | ALP (alkaline phosphatase) [2, 9]: 331 ± 27.3 U/L | ALT (alanine aminotransferase) [2, 9]: 86.2 ± 13.7 units | AST (aspartate aminotransferase) [2, 9]: 106.1 ± 21.0 units | BUN [2, 9]: 15.0 ± 0.5 mg/dL | CO2 [2, 9]: 23.5 ± 0.5 mM | Calcium [2, 9]: 11.4 ± 0.1 mg/dL | Chloride [2, 9]: 98.9 ± 0.8 mM | Cholesterol [2, 9]: 314.0 ± 13.6 mg/dL | Creatinine [2, 9]: 0.5 ± 0.01 mg/dL | Glucose [2, 9]: 327.0 ± 14.2 mg/dL | Potassium [2, 9]: 6 ± 0.13 mM | Sodium [2, 9]: 142 ± 0.8 mM | Triglycerides [2, 9]: 1172.0 ± 51.2 mg/dL | ALP (alkaline phosphatase) [2, 10]: 364 ± 33.4 U/L | ALT (alanine aminotransferase) [2, 10]: 70.9 ± 12.4 units | AST (aspartate aminotransferase) [2, 10]: 105.8 ± 20.9 units | BUN [2, 10]: 25.3 ± 5.4 mg/dL | CO2 [2, 10]: 22.5 ± 1 mM | Calcium [2, 10]: 11.3 ± 0.2 mg/dL | Chloride [2, 10]: 98.4 ± 0.7 mM | Cholesterol [2, 10]: 308.0 ± 27.8 mg/dL | Creatinine [2, 10]: 0.6 ± 0.90 mg/dL | Glucose [2, 10]: 317.0 ± 30.6 mg/dL | Potassium [2, 10]: 6.5 ± 0.04 mM | Sodium [2, 10]: 141 ± 0.7 mM | Triglycerides [2, 10]: 1167.0 ± 71.6 mg/dL | TNF-α [3, 9]: 294.0 ± 13.0 | TNF-α [3, 10]: 349.0 ± 11.9 | insulin concentration one hour after the glucose challenge [4, 9]: 2.23 ng/mL | insulin concentration one hour after the glucose challenge [4, 10]: 2.15 ng/mL | Baseline insulin concentration [4, 9]: 0.90 ng/mL | average baseline glucose level [4, 9]: 406 mg/dL | Baseline insulin concentration [4, 10]: 0.80 ng/mL | average baseline glucose level [4, 10]: 346 mg/dL | area under the curve after glucose challenge vs control ([4]; six rats per group, Hi Asta, astaxanthin 25 mg/kg in feed): statistically significant lower average reading than control | MCP-1 [5, 9]: 96.0 ± 4.1 | MCP-1 [5, 10]: 110.0 ± 5.2 | Angio 2 ([6]; Experiment 2, Hi Asta, astaxanthin 25 mg/kg in feed): 177.0 ± 5.2 pg/mL | Angio 2 ([6]; Experiment 2, Lo Asta, astaxanthin 5 mg/kg in feed): 197.0 ± 7.2 pg/mL | Organ weight, Epidydimal fat pad [7, 9]: 21.7 ± 12 | Organ weight, Kidney (left) [7, 9]: 2.4 ± 0.08 | Organ weight, Kidney (right) [7, 9]: 2.5 ± 0.10 | Organ weight, Liver [7, 9]: 43.3 ± 2.3 | Organ weight, Epidydimal fat pad [7, 10]: 19.3 ± 0.9 | Organ weight, Kidney (left) [7, 10]: 2.5 ± 0.16 | Organ weight, Kidney (right) [7, 10]: 2.5 ± 0.34 | Organ weight, Liver [7, 10]: 40.4 ± 2.4 | Lipid peroxidation, Kidney [8, 9]: 3.5 ± 0.30 nmoles MDA/mg protein | Lipid peroxidation, Liver [8, 9]: 3.9 ± 0.46 nmoles MDA/mg protein | Lipid peroxidation, Kidney [8, 10]: 3.9 ± 0.48 nmoles MDA/mg protein | Lipid peroxidation, Liver [8, 10]: 4.7 ± 0.53 nmoles MDA/mg protein

C[C@H](CS)C(=O)N1CCC[C@H]1C(=O)O [Captopril, reference compound]
IL-6 ([1]; captopril 30 mg/kg in feed): 391.0 ± 12*^ | ALP (alkaline phosphatase) ([2]; captopril 30 mg/kg in feed): 333 ± 22.1 U/L | ALT (alanine aminotransferase) ([2]; captopril 30 mg/kg in feed): 89.4 ± 13.9 units | AST (aspartate aminotransferase) ([2]; captopril 30 mg/kg in feed): 93.0 ± 12.8 units | BUN ([2]; captopril 30 mg/kg in feed): 14.0 ± 0.5 mg/dL | CO2 ([2]; captopril 30 mg/kg in feed): 24.1 ± 0.9 mM | Calcium ([2]; captopril 30 mg/kg in feed): 11.3 ± 0.6 mg/dL | Chloride ([2]; captopril 30 mg/kg in feed): 98.6 ± 1 mM | Cholesterol ([2]; captopril 30 mg/kg in feed): 281.0 ± 15.6 mg/dL | Creatinine ([2]; captopril 30 mg/kg in feed): 0.4 ± 0.02 mg/dL | Glucose ([2]; captopril 30 mg/kg in feed): 327.0 ± 23.0 mg/dL | Potassium ([2]; captopril 30 mg/kg in feed): 6 ± 0.04 mM | Sodium ([2]; captopril 30 mg/kg in feed): 140 ± 0.5 mM | Triglycerides ([2]; captopril 30 mg/kg in feed): 1029.0 ± 73.6 mg/dL | TNF-α ([3]; captopril 30 mg/kg in feed): 242.0 ± 13.6 | insulin concentration one hour after the glucose challenge ([4]; captopril 30 mg/kg in feed): 2.37 ng/mL | Baseline insulin concentration ([4]; captopril 30 mg/kg in feed): 0.82 ng/mL | average baseline glucose level ([4]; captopril 30 mg/kg in feed): 302 mg/dL | MCP-1 ([5]; captopril 30 mg/kg in feed): 81.0 ± 4.1 | Angio 2 ([6]; Experiment 2, captopril 30 mg/kg in feed): 162.0 ± 6.4 pg/mL | Organ weight, Epidydimal fat pad ([7]; captopril 30 mg/kg in feed): 19.1 ± 1.2 | Organ weight, Kidney (left) ([7]; captopril 30 mg/kg in feed): 2.3 ± 0.09 | Organ weight, Kidney (right) ([7]; captopril 30 mg/kg in feed): 2.3 ± 0.09 | Organ weight, Liver ([7]; captopril 30 mg/kg in feed): 43.1 ± 2.0 | Lipid peroxidation, Kidney ([8]; captopril 30 mg/kg in feed): 3.4 ± 0.44 nmoles MDA/mg protein | Lipid peroxidation, Liver ([8]; captopril 30 mg/kg in feed): 4.0 ± 0.29 nmoles MDA/mg protein
